{"source": "patent US7592003B2", "about": "“Regulation of toll-like receptors on stem cells” (Oklahoma Medical Research Foundation, priority 2005, dated 2009)", "key": {"CLP": {"system": "CLP", "assay": "Single cell culture of TLR ligand pre-treated CLP on OP9 stromal cells", "format": "cell-based, mouse", "settings": "24 h pre-treatment, 10 days on OP9", "description": "FIG. 7—Altered differentiation patterns of single lymphoid progenitors activated via TLRs. Sorted CLP were cultured in the presence of SCF, FL and IL-7 with medium alone, LPS (10 μg/ml) or Pam3CSK4 (1 μg/ml). After 24 h, cultured cells were harvested and washed three times with medium. Single cultured cells were then sorted and re-cultured on OP9 stromal cells in 96-well plates for 10 days in the presence of SCF, FL and IL-7. Positive colonies were examined by flow cytometry (representative examples shown on top row). The frequencies of wells with each of these differentiation patterns are shown along with total numbers of clones observed.\nSingle cell culture on OP9 stromal cells. Sorted CLP were cultured with X-VIVO15in the presence of SCF (20 ng/ml), FL (100 ng/ml) and IL-7 (1 ng/ml) with or without LPS (10 μg/ml), or Pam3CSK4 (1 μg/ml). After 24 h, cultured cells were harvested and washed with medium three times. A single cell sorting for the cultured cells was then conducted on a FACSAria™ and a single cell was plated on OP9 stromal cells in 96-well plate and cultured for 10 days in the presence of SCF (20 ng/ml), FL (100 ng/ml) and IL-7 (1 ng/ml). […] Positive wells (more than 30 cells) were determined by microscopic observation. Cells were harvested and then stained with mAbs to CD19, CD11c, and Mac-1 and analyzed by flow cytometry. […]"}, "GMP": {"system": "GMP", "assay": "Culture of sorted GMP for 72 h, morphology and Mac-1/F4/80 flow cytometry", "format": "cell-based, mouse", "description": "FIGS. 5A-C—TLR stimulation drives differentiation of GMP into F4/80^hi monocytes/macrophages. (FIG. 5A) These photomicrographs were prepared with Giemsa-May-Grünwald stained cytocentrifuged slides. ([…]) Sorted GMP were stimulated with LPS (1 μg/ml), Pam3CSK4 (100 ng/ml), M-CSF, or GM-CSF. After 72 h in culture, cells were analyzed by flow cytometry for expression of F4/80 and Mac-1. Percentages indicate the frequencies of Mac-1^lo F4/80^lo or Mac-1^hi F4/80^hi cells. CD86, Gr-1, or CD62L were analyzed by flow cytometry on Mac-1^hi F4/80^hi cells. Open histograms depict staining with the appropriate isotype matched Abs. The results are representative of those obtained in two independent experiments. (FIG. 5C) The bar graphs depict cell yields of Mac-1^lo F4/80^lo or Mac-1^hi F4/80^hi cells. The data represent mean values with standard deviations from triplicate cultures and are representative of three independent experiments.\nSerum-free, stromal cell-free cell cultures. Round-bottomed 96-well plates or flat-bottomed 24-well plates (Corning Inc.) were used for these cultures. […]\nCell morphology. Cytospins of cultured progenitor cells were stained with Giemsa-May-Grünwald (Sigma Diagnostics, St. Louis, Mo.), mounted in Immersol (Zeiss, Thornwood, N.Y.), and analyzed on a Zeiss Axioplan 2i microscope with a 100×/1.4 NA Plan Achromat objective. […]"}}}
{"substance": "Pam3CSK4", "values": [{"measurement": "Numbers of pure CD19+ B cell clones", "setting": "CLP", "result": "did not alter the production of CD19^+ B cell clones"}, {"measurement": "Numbers of pure mDC colonies", "setting": "CLP", "result": "enhanced production of colonies with pure mDC"}, {"measurement": "CD11b/Mac-1 expression of cells produced from GMP", "setting": "GMP", "result": "Virtually all cells produced in response to LPS or Pam3CSK4 were CD11b/Mac-1^+"}, {"measurement": "Morphology of recovered cells", "setting": "GMP; GMP, Giemsa-May-Grünwald", "result": "less homogeneous in appearance"}]}
